Experiment: Human HepG2 cell viability assay in 384 well format
Format: toxicity, cell-based
Parameters: dose 125 nL, time 70.5 hour; concentration not given beside the values
Conditions: HepG2 cells, read-out: Inhibition

Cc1cc(-c2cnc(NCc3ccccn3)nc2C(C)C)on1
cytotoxicity at 70.5 h: -11.7%

COc1ccc(CNc2ncc(-c3cc(C)no3)c(C(C)C)n2)cc1
cytotoxicity at 70.5 h: -4.08%

Cc1nn(C)cc1CN1CCc2c(nc(-c3ccccn3)[nH]c2=O)C1
cytotoxicity at 70.5 h: -5.77%

O=C(c1cncs1)N1CCC(c2cnccn2)CC1
cytotoxicity at 70.5 h: -8.41%

CC(=O)N1CCC(Cc2nccnc2-c2c(C)n[nH]c2C)C1 (configuration not stated)
cytotoxicity at 70.5 h: -8.33%

CC(C)N1CCC(c2nccnc2Nc2ncccn2)CC1
cytotoxicity at 70.5 h: -4.91%

CC(=O)N1CCN(CC(N)=O)CC(COc2ccccc2)C1 (configuration not stated)
cytotoxicity at 70.5 h: 6.55%

COCC(=O)N1CCCC1c1cccc(Cc2ccccc2F)n1 (configuration not stated)
cytotoxicity at 70.5 h: -1.54%

CS(=O)(=O)N1CCCC(Cc2ccnc3ccncc23)CC1 (configuration not stated)
cytotoxicity at 70.5 h: -0.73%

CC(C)CC(=O)N1CCN(Cc2cc(-c3ccncc3)nn2C)CC1
cytotoxicity at 70.5 h: -3.33%

COCC(=O)N1CCN(Cc2cc(-c3ccncc3)nn2C)CC1
cytotoxicity at 70.5 h: -3.57%

CCS(=O)(=O)N1CCc2nc(C3CCN(C(=O)C4CC4)C3)nc(O)c2C1 (configuration not stated)
cytotoxicity at 70.5 h: -1.94%

COc1ccc(-c2cccc(CC3(C(=O)O)CCOCC3)c2)cc1
cytotoxicity at 70.5 h: -4.34%

O=C(NCCN1CCOCC1)Nc1cnc2cc(Cl)ccc2c1O
cytotoxicity at 70.5 h: 12.7%

Cc1c(C2CCCN(C(=O)OC(C)(C)C)C2)n2c(nc1=O)CCC2 (configuration not stated)
cytotoxicity at 70.5 h: -5.64%

O=C(NCCCO)Nc1cnc2cc(Cl)ccc2c1O
cytotoxicity at 70.5 h: -1.44%

O=C(C1CC1)N1CCCC(c2nc(O)cc(-c3ccncc3)n2)C1 (configuration not stated)
cytotoxicity at 70.5 h: -0.584%

COc1ccccc1CN1CCC(O)(Cn2ccc3ncccc32)CC1
cytotoxicity at 70.5 h: -2.09%

O=c1[nH]c(N2CCOCC2)nc2c1CN(Cc1cccnc1)CC2
cytotoxicity at 70.5 h: 0.495%

O=C(CC1CCCCC1)NC1CCCc2nc(N3CCOCC3)ncc21 (configuration not stated)
cytotoxicity at 70.5 h: 0.0844%

Cc1ccc(=O)n(CC2(O)CCN(Cc3cnn(C)c3)CC2)n1
cytotoxicity at 70.5 h: -3.09%

Cc1ccc(=O)n(CC2(O)CCN(Cc3c(F)cccc3F)CC2)n1
cytotoxicity at 70.5 h: 0.803%

O=C(NC1CCCc2nc(N3CCOCC3)ncc21)C1CCCC1 (configuration not stated)
cytotoxicity at 70.5 h: -4.32%

O=C(Cc1ccsc1)N1CCCC(c2cc(C(F)F)n3ncnc3n2)C1 (configuration not stated)
cytotoxicity at 70.5 h: 14.6%

O=C(O)C1(Cc2cc(-c3ccccc3F)no2)CCOCC1
cytotoxicity at 70.5 h: -10.6%

CC(C)N1CCC(Cc2cncc(-c3ccccc3C(=O)O)n2)C1 (configuration not stated)
cytotoxicity at 70.5 h: -4.44%

CC(=O)N1CCc2ccccc2C1CC(=O)NCc1nnc(C)o1 (configuration not stated)
cytotoxicity at 70.5 h: 27.7%

Cc1cc(C(=O)NCCSC2CCCC2)no1
cytotoxicity at 70.5 h: -1.92%

CCCc1cc(C(=O)N2CCCN(c3cccnn3)CC2)[nH]n1
cytotoxicity at 70.5 h: -0.666%

CC(C)Cc1cc(C(=O)N2CCCN(c3cccnn3)CC2)[nH]n1
cytotoxicity at 70.5 h: -5.32%

CC1CN(C(=O)c2ccc(C(N)=O)cc2)c2ccc(F)cc2O1 (configuration not stated)
cytotoxicity at 70.5 h: 2.67%

Cc1nccn1-c1ccc(CNS(=O)(=O)N2CCCCC2C)cn1 (configuration not stated)
cytotoxicity at 70.5 h: -3.35%

CC(C)(NS(C)(=O)=O)C(=O)NCCc1csc2ccccc12
cytotoxicity at 70.5 h: 4.98%

COc1cccc(CC(C)NC(=O)NC(C)C)c1 (configuration not stated)
cytotoxicity at 70.5 h: -2.35%

CCOC(=O)CCNC(=O)c1cccc2ccc(C)nc12
cytotoxicity at 70.5 h: 0.845%

COc1ccc(C2CCCN2c2ccnc(C)c2Cl)c(OC)c1 (configuration not stated)
cytotoxicity at 70.5 h: 33.7%

COC(=O)c1ccc(NC(=O)NC2CCc3[nH]ncc3C2)cc1 (configuration not stated)
cytotoxicity at 70.5 h: 1.54%

O=C(Nc1ccc(-c2csnn2)cc1)N1CCCC1
cytotoxicity at 70.5 h: -11.8%

COc1cccc(CC(C)NC(=O)NCCNC(C)=O)c1 (configuration not stated)
cytotoxicity at 70.5 h: -1.81%

CCC1COCCN1C(=O)CNC(=O)c1ccc2c(c1)CCC2 (configuration not stated)
cytotoxicity at 70.5 h: 37.1%

Cc1cccc2nc(CN3CCCC(Cn4ccnn4)C3)cc(=O)n12 (configuration not stated)
cytotoxicity at 70.5 h: 2.5%

COc1cccc(CC(=O)NCCc2nnc3n2CCCCC3)c1
cytotoxicity at 70.5 h: 18.7%

CNC(=O)C1CCCCN1C(=O)c1csc(-c2ccc(C)o2)n1 (configuration not stated)
cytotoxicity at 70.5 h: -6.71%

NC(=O)C(NCc1ccc(Cl)s1)c1ccccc1 (configuration not stated)
cytotoxicity at 70.5 h: -7.49%

CCC(C)NC(=O)CS(=O)(=O)Cc1cc(Cl)ccc1OC (configuration not stated)
cytotoxicity at 70.5 h: -12%

CCN(Cc1ccco1)C(=O)C1=NN(c2ccccc2)C(=O)CN1
cytotoxicity at 70.5 h: 17.6%

CNC(=O)C1CCCCN1C(=O)Cc1csc(-c2ccc(C)o2)n1 (configuration not stated)
cytotoxicity at 70.5 h: -11.8%

Cc1noc(C)c1CN(C)C(=O)C1CCN(S(N)(=O)=O)CC1
cytotoxicity at 70.5 h: -1.71%

Cc1noc(C)c1CN(C)C(=O)C1CCCCN1S(C)(=O)=O (configuration not stated)
cytotoxicity at 70.5 h: 13.6%

CC(C)(C)n1ncc(C(=O)NCCCC(N)=O)c1C(F)(F)F
cytotoxicity at 70.5 h: -9.38%

N#CCCN(CC1CC1)S(=O)(=O)c1cccc(Cl)c1
cytotoxicity at 70.5 h: -3.31%

O=C(CCNC(=O)C1=Cc2ccccc2OC1)Nc1cccnc1
cytotoxicity at 70.5 h: -6.01%

N#CCCN(CC1CCOC1)S(=O)(=O)c1cccc(Cl)c1 (configuration not stated)
cytotoxicity at 70.5 h: -5.98%

Cc1noc(C)c1NC(=O)CCn1cc(Br)ccc1=O
cytotoxicity at 70.5 h: -8.23%

Cc1ccc(F)c2c1N(C(=O)Cc1c(C)nn(C)c1C)CCC2
cytotoxicity at 70.5 h: -8.9%

COc1nc(N2CCC(CC(N)=O)CC2)ncc1Br
cytotoxicity at 70.5 h: -8.58%

COc1ccc(CCNc2cc(-c3nc(C)no3)ccn2)cc1OC
cytotoxicity at 70.5 h: -3.44%

CNC(=O)Cc1noc(-c2cc3c(s2)CCC(C)C3)n1 (configuration not stated)
cytotoxicity at 70.5 h: -3.99%

CC1CCC(N2CCC(NS(=O)(=O)CCCF)CC2)CC1 (configuration not stated)
cytotoxicity at 70.5 h: 7.59%

CNC(=O)Cc1noc(-c2cc3c(s2)CCC(C)(C)C3)n1
cytotoxicity at 70.5 h: -3.09%

CC(C)CCC(=O)N1CCN(c2ncnc3nc(N)ccc23)CC1
cytotoxicity at 70.5 h: -6.9%

Cc1ccc(C(=O)N2CCN(c3ncnc4nc(N)ccc34)CC2)o1
cytotoxicity at 70.5 h: -7.65%

CC(C)CCN1CCN(c2ncnc3nc(N)ccc23)CC1
cytotoxicity at 70.5 h: -2.35%

Cc1noc(C)c1NC(=O)Cn1cc(Br)ccc1=O
cytotoxicity at 70.5 h: 0.532%

Cc1ccc(C(=O)N2CCN(c3ncnc4nc(N)ccc34)CC2)cc1
cytotoxicity at 70.5 h: 20.2%

CC(C)OCCC1CCCCN1S(=O)(=O)c1cnn(C)c1 (configuration not stated)
cytotoxicity at 70.5 h: -4.85%

CC(C)N(C)CCCNC(=O)c1cnn(C(C)(C)C)c1C(F)(F)F
cytotoxicity at 70.5 h: -7.79%

Cc1ccc(F)c2c1CCCN2C(=O)Cc1c(C)nn(C)c1C
cytotoxicity at 70.5 h: -5.29%

COc1cccc(COC(C)C(=O)NCc2nnc3n2CCC3)c1 (configuration not stated)
cytotoxicity at 70.5 h: -1.81%

N#CCCN(CC1CCOC1)S(=O)(=O)c1c(F)cccc1Cl (configuration not stated)
cytotoxicity at 70.5 h: -6.61%

CC(C)Cc1noc(CNc2cc3c(cc2Cl)OCCCO3)n1
cytotoxicity at 70.5 h: 1.94%

Cc1ncc(CN2CCC(c3ccnn3C)CC2)n1-c1ccccc1
cytotoxicity at 70.5 h: 2.82%

CC1CCCN(S(=O)(=O)NCCCn2ccc3ccccc32)C1 (configuration not stated)
cytotoxicity at 70.5 h: -9.54%

Cn1nccc1C1CCN(Cc2cnn(-c3ccccc3)n2)CC1
cytotoxicity at 70.5 h: 20.8%

Cc1noc(C)c1CN1CCN(Cc2nc(C3CC3)no2)CC1
cytotoxicity at 70.5 h: -12.8%

Cn1nccc1C1CCN(Cc2ccn(-c3ccccc3)n2)CC1
cytotoxicity at 70.5 h: -5.5%

CCn1cnc2c(c(Br)nn2C)c1=O
cytotoxicity at 70.5 h: -17.1%

Cc1c(Cl)cccc1OCC(=O)NC1(C#N)CCSC1 (configuration not stated)
cytotoxicity at 70.5 h: -10.3%

Cn1nc(Br)c2c(=O)n(CCc3ccccc3)cnc21
cytotoxicity at 70.5 h: -8.29%

N#CC1(NC(=O)COc2cc(Cl)cc(Cl)c2)CCSC1 (configuration not stated)
cytotoxicity at 70.5 h: -14.6%

N#CC1(NC(=O)COc2cc(Cl)cc(Cl)c2)CCOCC1
cytotoxicity at 70.5 h: -5.72%

CN1CCN(c2ccc(NCc3ccc(OC(F)(F)F)cc3)cn2)CC1
cytotoxicity at 70.5 h: -11.2%

CN(C)Cc1nc(C(C)(C)NC(=O)c2ccc3ccccc3c2)no1
cytotoxicity at 70.5 h: -6.87%

N#Cc1cc(F)ccc1NCC1CCS(=O)(=O)CC1
cytotoxicity at 70.5 h: -1.39%

O=C(CC1CCN(CCN2CCCCC2)CC1)N1CCOCC1
cytotoxicity at 70.5 h: -9.66%

Cc1sc(NC(=O)CN2CCCC(c3ncc[nH]3)C2)c(C)c1C (configuration not stated)
cytotoxicity at 70.5 h: -14.9%

O=C(CN1CCCC(c2ncc[nH]2)C1)NCC(F)(F)F (configuration not stated)
cytotoxicity at 70.5 h: 18.7%

COc1ccc(CN(C(=O)C2CCCS2)c2ccncc2)cc1 (configuration not stated)
cytotoxicity at 70.5 h: -8.12%

COc1ccc(CN(C(=O)C2CCOCC2)c2ccncc2)cc1
cytotoxicity at 70.5 h: -10.6%

CC(C)(C)CC1CCCN1Cc1nc(-c2ccco2)no1 (configuration not stated)
cytotoxicity at 70.5 h: 18%

Cn1cnnc1CNC(=O)CCCOc1ccccc1Cl
cytotoxicity at 70.5 h: -14.3%

CN(CCc1nc(-c2cccc(Cl)c2)no1)CCn1cccn1
cytotoxicity at 70.5 h: -5.46%

CN(C)Cc1nc(C(C)(C)NC(=O)c2nc3ccccc3s2)no1
cytotoxicity at 70.5 h: -7.47%

CNS(=O)(=O)CCCNC(C)(C)c1nc(C)cs1
cytotoxicity at 70.5 h: -1.16%

COc1ncccc1CNc1snc(Cl)c1C#N
cytotoxicity at 70.5 h: -103%

O=C(CNc1cc(-n2cnnn2)ccc1F)Nc1cc(F)ccc1F
cytotoxicity at 70.5 h: -96.7%

CNC(=O)Cn1cc(Nc2cccc(F)c2C#N)cn1
cytotoxicity at 70.5 h: -32.8%

Cc1nc(-c2ccco2)ccc1C(=O)NCC(=O)N1CCCCC1
cytotoxicity at 70.5 h: -117%

Cc1cccc(CSc2nnc(C)n2CC(N)=O)c1
cytotoxicity at 70.5 h: -91.2%

COC(=O)C1=NN2C(=NS(=O)(=O)c3ccccc32)N1
cytotoxicity at 70.5 h: -89.7%

COc1cc(CSc2nnc(C)n2CC(N)=O)ccc1SC
cytotoxicity at 70.5 h: -118%

O=C(O)c1cc(S(=O)(=O)Nc2cccc3c2OCCO3)c(Cl)cc1F
cytotoxicity at 70.5 h: -124%

CCOCCc1nc(-c2cnn3c(C)cc(C)nc23)no1
cytotoxicity at 70.5 h: -107%

CCS(=O)(=O)Cc1nc(-c2cnn3c(C)cc(C)nc23)no1
cytotoxicity at 70.5 h: -116%

COCc1nc(C(=O)OCC2CCN(c3ccccc3)C2)cs1 (configuration not stated)
cytotoxicity at 70.5 h: -88.7%

NC(=O)C1CN(c2ccc(Br)cn2)CCO1 (configuration not stated)
cytotoxicity at 70.5 h: -26.8%

Cc1ccc(C(=O)N2CCC3(CCCC3)CC2)c(=O)[nH]1
cytotoxicity at 70.5 h: -99.3%

O=C(Cc1cccs1)NS(=O)(=O)c1cccc2cnccc12
cytotoxicity at 70.5 h: -116%

CCS(=O)(=O)N1CCC(Nc2c(Cl)cccc2C#N)CC1
cytotoxicity at 70.5 h: -90.6%

CC(C)CC(=O)NCCn1nc(C2CCNC2)c2cccnc21 (configuration not stated)
cytotoxicity at 70.5 h: -2.13%

COCCC(=O)NCCn1nc(C2CCNC2)c2cccnc21 (configuration not stated)
cytotoxicity at 70.5 h: 14.1%

Cc1ccc2c(c1)CN(C(=O)c1ccncc1)C(CN(C)C)CO2 (configuration not stated)
cytotoxicity at 70.5 h: -0.528%

Cc1ccc(CN2CCC(O)(Cn3ccc4ncccc43)CC2)o1
cytotoxicity at 70.5 h: -0.742%

OC1(Cn2ccc3ncccc32)CCN(Cc2ccccc2F)CC1
cytotoxicity at 70.5 h: 2.31%

COc1ccc(C(=O)N2Cc3cc(C)ccc3OCC2CN(C)C)cc1 (configuration not stated)
cytotoxicity at 70.5 h: 3.28%

CCn1cncc1CN(Cc1ccc(OC)cc1OC)CC1CCCO1 (configuration not stated)
cytotoxicity at 70.5 h: -3.49%

Cc1cccnc1[C@]1(O)CC[C@H]2CN(Cc3cccc(Cl)c3Cl)C[C@H]21
cytotoxicity at 70.5 h: -3.29%

Source: ChEMBL document CHEMBL3507680, “University of Dundee, Gates Library screen for HepG2 cell viability”
